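1) Cells in 96-well plates. 2) Compound, 48 h, 5 concentrations. 3) Linear interpolation between surrounding doses. 4) Unreached endpoint = highest concentration. The concentration for 50% growth inhibition is given as GI50.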 Activity calls are given as the source filed them. Cut-off read from the data, not from the text of the source: active = GI50 up to about 1.1 µM and inactive = higher.
Tests used:
Assay in all cases: NCI tumour cell line growth inhibition, 48 h
786-0 = system: 786-0
A498 = system: A498
A549 = system: A549
ACHN = system: ACHN
BT-549 = system: BT-549
CAKI-1 = system: CAKI-1
CCRF-CEM = system: CCRF-CEM
COLO 205 = system: COLO 205
DU-145 = system: DU-145
EKVX = system: EKVX
HCC 2998 = system: HCC 2998
HCT-116 = system: HCT-116
HCT-15 = system: HCT-15
HL-60 = system: HL-60
HOP-62 = system: HOP-62
HOP-92 = system: HOP-92
HT-29 = system: HT-29
Hs-578T = system: Hs-578T
IGROV-1 = system: IGROV-1
K562 = system: K562
KM12 = system: KM12
LOX IMVI = system: LOX IMVI
M14 = system: M14
MDA-MB-231 = system: MDA-MB-231
MDA-MB-435 = system: MDA-MB-435
MDA-N = system: MDA-N
MOLT-4 = system: MOLT-4
Malme-3M = system: Malme-3M
NCI-H226 = system: NCI-H226
NCI-H23 = system: NCI-H23
NCI-H460 = system: NCI-H460
NCI-H522 = system: NCI-H522
NCI/ADR-RES = system: NCI/ADR-RES
OVCAR-4 = system: OVCAR-4
OVCAR-5 = system: OVCAR-5
OVCAR-8 = system: OVCAR-8
PC-3 = system: PC-3
RPMI-8226 = system: RPMI-8226
RXF 393 = system: RXF 393
SF-268 = system: SF-268
SF-295 = system: SF-295
SK-MEL-28 = system: SK-MEL-28
SK-MEL-2 = system: SK-MEL-2
SK-MEL-5 = system: SK-MEL-5
SK-OV-3 = system: SK-OV-3
SN12C = system: SN12C
SNB-19 = system: SNB-19
SR = system: SR
SW-620 = system: SW-620
T47D = system: T47D
TK-10 = system: TK-10
U-251 = system: U-251
UACC-257 = system: UACC-257
UACC-62 = system: UACC-62
UO-31 = system: UO-31
MCF7 = system: MCF7
OVCAR-3 = system: OVCAR-3
SF-539 = system: SF-539
SNB-75 = system: SNB-75

Measured: GI50

CCC1=NC(N/N=C/c2ccco2)=N/C1=C\c1ccco1
inactive: 786-0 > 100 µM | A498 > 100 µM | A549 > 100 µM | ACHN > 100 µM | BT-549 > 100 µM | CAKI-1 > 100 µM | CCRF-CEM > 100 µM | COLO 205 > 100 µM | DU-145 > 100 µM | EKVX > 100 µM | HCC 2998 > 100 µM | HCT-116 > 100 µM | HL-60 > 100 µM | HOP-62 > 100 µM | HOP-92 > 100 µM | HT-29 > 100 µM | Hs-578T > 100 µM | IGROV-1 > 100 µM | K562 62.1 µM | KM12 > 100 µM | LOX IMVI > 100 µM | M14 > 100 µM | MDA-MB-231 > 100 µM | MDA-MB-435 52 µM | MDA-N > 100 µM | MOLT-4 > 100 µM | Malme-3M > 100 µM | NCI-H226 > 100 µM | NCI-H23 > 100 µM | NCI-H460 52 µM | NCI-H522 > 100 µM | NCI/ADR-RES > 100 µM | OVCAR-4 > 100 µM | OVCAR-5 > 100 µM | OVCAR-8 > 100 µM | PC-3 > 100 µM | RPMI-8226 40.9 µM | RXF 393 > 100 µM | SF-268 > 100 µM | SF-295 > 100 µM | SK-MEL-28 > 100 µM | SK-MEL-2 > 100 µM | SK-MEL-5 > 100 µM | SK-OV-3 > 100 µM | SN12C > 100 µM | SNB-19 > 100 µM | SR > 100 µM | SW-620 > 100 µM | T47D > 100 µM | TK-10 > 100 µM | U-251 > 100 µM | UACC-257 > 100 µM | UACC-62 > 100 µM | UO-31 > 100 µM
> 100 µM: HCT-15

COc1cccc(N2C(=O)C3c4[nH]c5ccccc5c4C4c5ccccc5CCC4C3C2=O)c1 (configuration not stated)
inactive: 786-0 2.9 µM | A498 2.77 µM | A549 6.12 µM | ACHN > 10 µM | BT-549 4.91 µM | CAKI-1 > 10 µM | CCRF-CEM > 10 µM | COLO 205 > 7.87 µM | DU-145 > 10 µM | EKVX > 9.31 µM | HCC 2998 > 10 µM | HCT-116 4.34 µM | HL-60 > 10 µM | HOP-62 2.4 µM | HOP-92 6.15 µM | HT-29 9.93 µM | Hs-578T 3 µM | IGROV-1 > 7.98 µM | K562 > 10 µM | KM12 > 10 µM | LOX IMVI > 10 µM | M14 4.92 µM | MCF7 > 10 µM | MDA-MB-231 5.06 µM | MDA-MB-435 > 7.5 µM | MDA-N > 8.28 µM | MOLT-4 > 10 µM | Malme-3M 3.75 µM | NCI-H226 > 4.37 µM | NCI-H23 > 10 µM | NCI-H460 4.82 µM | NCI-H522 > 10 µM | NCI/ADR-RES 4.76 µM | OVCAR-3 5.5 µM | OVCAR-4 2.75 µM | OVCAR-5 > 10 µM | OVCAR-8 2.34 µM | PC-3 > 6.7 µM | RPMI-8226 > 10 µM | RXF 393 > 6.62 µM | SF-268 4.16 µM | SF-295 > 10 µM | SF-539 2.5 µM | SK-MEL-28 > 9.55 µM | SK-MEL-2 > 10 µM | SK-MEL-5 > 8.81 µM | SK-OV-3 > 4.86 µM | SN12C > 6.03 µM | SNB-19 3.31 µM | SNB-75 2.7 µM | SW-620 > 9.14 µM | T47D > 10 µM | TK-10 > 10 µM | U-251 3.82 µM | UACC-62 > 10 µM | UO-31 4.27 µM
> 10 µM: HCT-15

From ChEMBL document CHEMBL1201862, “PubChem BioAssay data set” (2004)
